Measured values from US20140357713A1, “ANTIMICROBIAL COMPOUNDS AND METHODS OF USE” (NexMed Holdings, Inc., priority 2012, published 2014).
Counter-ions that a name gives are not always drawn. Like-named read-outs stand apart in the source and are kept apart here. One block for each compound: values may come before it.

Tests used:
Type in all cases: cell-based
[1] = tested on: Candida albicans (ATCC 90029); assay: Minimum inhibitory concentration (MIC) assay, Example 33; conditions: Candida albicans
Procedure, shortened: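 MIC read per CLSI after incubation at 35° C. Colonies in RPMI 1640 adjusted to OD530 0.08–0.13, diluted 1:50 and 1:20 to twice test density, then added 1:2 to wells holding 2-fold serial drug dilutions in RPMI 1640 (CLSI microdilution).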

[2] = tested on: Bacillus subtilis (ATCC 6633); assay: MIC assay with different strains, Example 35
Method: (§1) The minimum inhibitory concentration (MIC) is used to determine the lowest concentration of a test product claiming antimicrobial effects that will inhibit growth of a microorganism. Each microbial suspension was adjusted approximately 10^7 to 10^8 colony forming units (CFU) per mL and labeled as the stock suspension. The stock suspension was further diluted to 1:200 in Mueller Hinton broth to obtain a test sample having a concentration of […]. The test sample was then tested for MIC as described in M202.R02. After incubation, each tube was examined for turbidity, which indicated growth or no growth. For the tubes where the product rendered the media turbid, an aliquot of the media was streaked onto agar plates to confirm growth or lack of growth.

[3] = tested on: Enterococcus faecalis (ATCC 51299); assay: MIC assay with different strains, Example 35
Method: as §1

[4] = tested on: Escherichia coli ATCC 25922; assay: MIC assay with different strains, Example 35; conditions: for MIC: Example 35
Method: as §1

[5] = tested on: Pseudomonas aeruginosa (ATCC 9027); assay: MIC assay with different strains, Example 35
Method: as §1

[6] = tested on: Serratia marcescens (ATCC 14756); assay: MIC assay with different strains, Example 35
Method: as §1

[7] = tested on: Staphylococcus aureus (ATCC 6538); assay: MIC assay with different strains, Example 35
Method: as §1

[8] = tested on: Staphylococcus saprophyticus (ATCC 15305); assay: MIC assay with different strains, Example 35
Method: as §1

[9] = ATCC90029, Table 19 summary, read-out: MIC
[10] = ATCC90029, n = 1, read-out: MIC Candida albicans
[11] = ATCC90029, n = 2, read-out: MIC Candida albicans

SMILES: CCCCCCCCCCCCOC(=O)C(C)NC.Cl (centres unmarked) [Nex-59, Dodecyl 2-(methylamino)propanoate hydrochloride]
MIC [1, 9]: 50 µg/mL | MIC [1, 10]: 25 µg/mL | MIC [1, 11]: 25 µg/mL | MIC ([2]; Bacillus subtilis, ATCC6633, Table 19 summary, read-out: MIC): 400 µg/mL | MIC ([2]; Example 35): 0.04% | Growth/no growth ([2]; Sample Concentration 0.01%): Growth | Growth/no growth ([2]; Sample Concentration 0.02%): Growth | MIC ([3]; Enterococcus faecalis, ATCC51299, Table 19 summary, read-out: MIC): 400 µg/mL | MIC ([3]; Example 35): 0.04% | Growth/no growth ([3]; Sample Concentration 0.01%): Growth | Growth/no growth ([3]; Sample Concentration 0.02%): Growth | Growth/no growth ([3]; Sample Concentration 0.04%): No | Growth/no growth ([3]; Sample Concentration 0.08%): No | Growth/no growth ([3]; Sample Concentration 0.16%): No | Growth/no growth ([3]; Sample Concentration 0.32%): No | Growth/no growth ([3]; Sample Concentration 0.63%): No | Growth/no growth ([3]; Sample Concentration 1.25%): No | Growth/no growth ([3]; Sample Concentration 2.5%): No | MIC [4]: 0.16% | Growth/no growth ([4]; Sample Concentration 0.01%): Growth | Growth/no growth ([4]; Sample Concentration 0.02%): Growth | Growth/no growth ([4]; Sample Concentration 0.04%): Growth | Growth/no growth ([4]; Sample Concentration 0.08%): Growth | Growth/no growth ([4]; Sample Concentration 0.16%): No | Growth/no growth ([4]; Sample Concentration 0.32%): No | Growth/no growth ([4]; Sample Concentration 0.63%): No | Growth/no growth ([4]; Sample Concentration 1.25%): No | Growth/no growth ([4]; Sample Concentration 2.5%): No | MIC ([5]; Example 35): 0.16% | MIC ([5]; Pseudomonas aeruginosa, ATCC9027, Table 19 summary, read-out: MIC): 1600 µg/mL | Growth/no growth ([5]; Sample Concentration 0.01%): Growth | Growth/no growth ([5]; Sample Concentration 0.02%): Growth | Growth/no growth ([5]; Sample Concentration 0.04%): Growth | Growth/no growth ([5]; Sample Concentration 0.08%): Growth | MIC ([6]; Example 35): >2.5% | Growth/no growth ([6]; Sample Concentration 0.01%): Growth | Growth/no growth ([6]; Sample Concentration 0.02%): Growth | Growth/no growth ([6]; Sample Concentration 0.04%): Growth | Growth/no growth ([6]; Sample Concentration 0.08%): Growth | Growth/no growth ([6]; Sample Concentration 0.16%): Growth | Growth/no growth ([6]; Sample Concentration 0.32%): Growth | Growth/no growth ([6]; Sample Concentration 0.63%): Growth | Growth/no growth ([6]; Sample Concentration 1.25%): Growth | Growth/no growth ([6]; Sample Concentration 2.5%): Growth | MIC ([6]; Serratia marcescens, ATCC14756, Table 19 summary, read-out: MIC): > 25000 µg/mL | MIC ([7]; Example 35): 0.04% | Growth/no growth ([7]; Sample Concentration 0.01%): Growth | Growth/no growth ([7]; Sample Concentration 0.02%): Growth | MIC ([7]; Staphylococcus aureus, ATCC6538, Table 19 summary, read-out: MIC): 400 µg/mL | MIC ([8]; Example 35): 0.02% | Growth/no growth ([8]; Sample Concentration 0.01%): Growth | Growth/no growth ([8]; Sample Concentration 0.02%): No | Growth/no growth ([8]; Sample Concentration 0.04%): No | Growth/no growth ([8]; Sample Concentration 0.08%): No | Growth/no growth ([8]; Sample Concentration 0.16%): No | Growth/no growth ([8]; Sample Concentration 0.32%): No | Growth/no growth ([8]; Sample Concentration 0.63%): No | Growth/no growth ([8]; Sample Concentration 1.25%): No | Growth/no growth ([8]; Sample Concentration 2.5%): No | MIC ([8]; Staphylococcus saprophyticus, ATCC15305, Table 19 summary, read-out: MIC): 200 µg/mL

MIC [1, 9]: 12500 µg/mL | MIC [1, 10]: 12500 µg/mL | MIC [1, 11]: 12500 µg/mL
SMILES: CCCCCCCCCCCCOC(=O)C(C)NC(C)C.Cl (centres unmarked) [Nex-60, Dodecyl 2-(isopropylamino)propanoate hydrochloride]

MIC [1, 9]: 6.25 µg/mL | MIC [1, 10]: 6.25 µg/mL | MIC [1, 11]: 6.25 µg/mL
SMILES: CCCCCCCCCCCCOC(=O)C(C)NCCN(CC)CC.Cl (centres unmarked) [Nex-62, Dodecyl 2-((2-(diethylamino)ethyl)amino)propanoate dihydrochloride]

SMILES: CCCCCCCCCCCCOC(=O)C(C)N(C)C (centres unmarked) [Nex-05, Dodecyl 2-(dimethylamino)propanoate hydrochloride]
MIC ([1]; ATCC90029, Table 19 summary): > 12500 µg/mL | MIC ([1]; ATCC90029, read-out: MIC Candida albicans, n = 1): > 12500 µg/mL | MIC ([1]; ATCC90029, read-out: MIC Candida albicans, n = 2): > 12500 µg/mL | MIC ([2]; Example 35): 0.313% | Growth/no growth ([2]; Sample Concentration 0.039%): Growth | Growth/no growth ([2]; Sample Concentration 0.078%): Growth | Growth/no growth ([2]; Sample Concentration 0.156%): Growth | MIC ([3]; Example 35): 0.313% | Growth/no growth ([3]; Sample Concentration 0.039%): Growth | Growth/no growth ([3]; Sample Concentration 0.078%): Growth | Growth/no growth ([3]; Sample Concentration 0.156%): Growth | MIC [4]: 1.25% | Growth/no growth ([4]; Sample Concentration 0.039%): Growth | Growth/no growth ([4]; Sample Concentration 0.078%): Growth | Growth/no growth ([4]; Sample Concentration 0.156%): Growth | Growth/no growth ([4]; Sample Concentration 0.313%): Growth | Growth/no growth ([4]; Sample Concentration 0.625%): Growth | MIC ([5]; Example 35): 1.25% | Growth/no growth ([5]; Sample Concentration 0.039%): Growth | Growth/no growth ([5]; Sample Concentration 0.078%): Growth | Growth/no growth ([5]; Sample Concentration 0.156%): Growth | Growth/no growth ([5]; Sample Concentration 0.313%): Growth | MIC ([6]; Example 35): 2.5% | Growth/no growth ([6]; Sample Concentration 0.039%): Growth | Growth/no growth ([6]; Sample Concentration 0.078%): Growth | Growth/no growth ([6]; Sample Concentration 0.156%): Growth | Growth/no growth ([6]; Sample Concentration 0.313%): Growth | Growth/no growth ([6]; Sample Concentration 0.625%): Growth | Growth/no growth ([6]; Sample Concentration 1.25%): Growth | MIC ([7]; Example 35): 2.5% | Growth/no growth ([7]; Sample Concentration 0.039%): Growth | Growth/no growth ([7]; Sample Concentration 0.078%): Growth | Growth/no growth ([7]; Sample Concentration 0.156%): Growth | Growth/no growth ([7]; Sample Concentration 0.313%): Growth | Growth/no growth ([7]; Sample Concentration 0.625%): Growth | Growth/no growth ([7]; Sample Concentration 1.25%): Growth | MIC ([8]; Example 35): 0.625% | Growth/no growth ([8]; Sample Concentration 0.039%): Growth | Growth/no growth ([8]; Sample Concentration 0.078%): Growth | Growth/no growth ([8]; Sample Concentration 0.156%): Growth | Growth/no growth ([8]; Sample Concentration 0.313%): Growth

MIC [1, 9]: 12.5 µg/mL | MIC [1, 10]: 12.5 µg/mL | MIC [1, 11]: 12.5 µg/mL
SMILES: CCCCCCCCCCCCOC(=O)C(C)NCCO.Cl (centres unmarked) [Nex-61, Dodecyl 2-((2-hydroxyethyl)amino)propanoate hydrochloride]
